Tests used:
Assay in all cases: Glasshouse herbicide test, pre- and post-emergence
Assay type in all cases: in vivo
[1] = system: Alopecurus myosuroides (ALOMY); conditions: 250 g/h, evaluated after 13 days, five-point scale; for percentage damage caused to the plant, ALOMY POST: post-emergence; for percentage damage caused to the plant, ALOMY PRE: pre-emergence
Protocol: (§1) Seeds of a variety of test species are sown in standard soil in pots (Lolium perenne (LOLPE), Setaria faberi (SETFA), Alopecurus myosuroides (ALOMY), Echinochloa crus-galli (ECHCG), Avena fatua (AVEFA)). After cultivation for one day (pre-emergence) or after 8 days cultivation (post-emergence) under controlled conditions in a glasshouse (at 24/16° C., day/night; 14 hours light; 65% humidity), the plants are sprayed with an aqueous spray solution derived from the formulation of the technical active ingredient in acetone/water (50:50) solution containing 0.5% Tween 20 (polyoxyethelyene sorbitan monolaurate, CAS RN 9005-64-5). Compounds are applied at 250 g/h. The test plants are then grown in a glasshouse under controlled conditions in a glasshouse (at 24/16° C., day/night; 14 hours light; 65% humidity) and watered twice daily. After 13 days for pre and post-emergence, the test is evaluated for the percentage damage caused to the plant. The biological activities are shown in the following table on a five-point scale (5=80-100%; 4=60-79%; 3=40-59%; 2=20-39%; 1=0-19%).

[2] = system: Avena fatua (AVEFA); conditions: 250 g/h, evaluated after 13 days, five-point scale; for percentage damage caused to the plant, AVEFA POST: post-emergence; for percentage damage caused to the plant, AVEFA PRE: pre-emergence
Protocol: as §1

[3] = system: Echinochloa crus-galli (ECHCG); conditions: 250 g/h, evaluated after 13 days, five-point scale; for percentage damage caused to the plant, ECHCG POST: post-emergence; for percentage damage caused to the plant, ECHCG PRE: pre-emergence
Protocol: as §1

[4] = system: Lolium perenne (LOLPE); conditions: 250 g/h, evaluated after 13 days, five-point scale; for percentage damage caused to the plant, LOLPE POST: post-emergence; for percentage damage caused to the plant, LOLPE PRE: pre-emergence
Protocol: as §1

[5] = system: Setaria faberi (SETFA); conditions: 250 g/h, evaluated after 13 days, five-point scale; for percentage damage caused to the plant, SETFA POST: post-emergence; for percentage damage caused to the plant, SETFA PRE: pre-emergence
Protocol: as §1

In the case of `CC#Cc1cc(C)c(C2C(=O)CC3(CCC(C(=O)N(C)C)CC3)CC2=O)c(C)c1` (stereo not shown) [Compound 1.001], the “percentage damage caused to the plant, ALOMY POST” value [1] was 5 (5=80-100%), the “percentage damage caused to the plant, ALOMY PRE” value [1] was 5 (5=80-100%) and the “percentage damage caused to the plant, AVEFA POST” value [2] was 5 (5=80-100%). The “percentage damage caused to the plant, AVEFA PRE” value [2] was 5 (5=80-100%), the “percentage damage caused to the plant, ECHCG POST” value [3] was 5 (5=80-100%) and the “percentage damage caused to the plant, ECHCG PRE” value [3] was 5 (5=80-100%). For the same compound, the “percentage damage caused to the plant, LOLPE POST” value [4] was 5 (5=80-100%), the “percentage damage caused to the plant, LOLPE PRE” value [4] was 5 (5=80-100%) and the “percentage damage caused to the plant, SETFA POST” value [5] was 5 (5=80-100%). The “percentage damage caused to the plant, SETFA PRE” value [5] was 5 (5=80-100%).

For `CC#Cc1cc(C)c(C2C(=O)CC3(CCC(C(=O)NC)CC3)CC2=O)c(C)c1` (stereo not shown) [Compound 1.002, 3-(2,6-dimethyl-4-prop-1-ynyl-phenyl)-N-methyl-2,4-dioxo-spiro[5.5]undecane-9-carboxamide], the “percentage damage caused to the plant, ALOMY POST” value [1] was 5 (5=80-100%), the “percentage damage caused to the plant, ALOMY PRE” value [1] was 5 (5=80-100%) and the “percentage damage caused to the plant, AVEFA POST” value [2] was 5 (5=80-100%). The “percentage damage caused to the plant, AVEFA PRE” value [2] was 5 (5=80-100%), the “percentage damage caused to the plant, ECHCG POST” value [3] was 5 (5=80-100%) and the “percentage damage caused to the plant, ECHCG PRE” value [3] was 5 (5=80-100%). The “percentage damage caused to the plant, LOLPE POST” value [4] was 5 (5=80-100%), the “percentage damage caused to the plant, LOLPE PRE” value [4] was 5 (5=80-100%) and the “percentage damage caused to the plant, SETFA POST” value [5] was 5 (5=80-100%). For the same compound, the “percentage damage caused to the plant, SETFA PRE” value [5] was 5 (5=80-100%).

`CC#Cc1cc(C)c(C2C(=O)CC3(CCC(C(=O)NC(=O)c4ccccn4)CC3)CC2=O)c(C)c1` (stereo not shown) [Compound 1.003] was tested, and the “percentage damage caused to the plant, ALOMY POST” value [1] was 5 (5=80-100%), the “percentage damage caused to the plant, ALOMY PRE” value [1] was 4 (4=60-79%) and the “percentage damage caused to the plant, AVEFA POST” value [2] was 5 (5=80-100%). For the same compound, the “percentage damage caused to the plant, AVEFA PRE” value [2] was 4 (4=60-79%), the “percentage damage caused to the plant, ECHCG POST” value [3] was 5 (5=80-100%) and the “percentage damage caused to the plant, ECHCG PRE” value [3] was 5 (5=80-100%). For the same compound, the “percentage damage caused to the plant, LOLPE POST” value [4] was 5 (5=80-100%), the “percentage damage caused to the plant, LOLPE PRE” value [4] was 4 (4=60-79%) and the “percentage damage caused to the plant, SETFA POST” value [5] was 5 (5=80-100%). For the same compound, the “percentage damage caused to the plant, SETFA PRE” value [5] was 5 (5=80-100%).

For `CC#Cc1cc(C)c(C2C(=O)CC3(CCC(C(=O)Nc4ccccn4)CC3)CC2=O)c(C)c1` (stereo not shown) [Compound 1.004], the “percentage damage caused to the plant, ALOMY POST” value [1] was 4 (4=60-79%), the “percentage damage caused to the plant, ALOMY PRE” value [1] was 3 (3=40-59%) and the “percentage damage caused to the plant, AVEFA POST” value [2] was 5 (5=80-100%). The “percentage damage caused to the plant, AVEFA PRE” value [2] was 4 (4=60-79%), the “percentage damage caused to the plant, ECHCG POST” value [3] was 4 (4=60-79%) and the “percentage damage caused to the plant, ECHCG PRE” value [3] was 5 (5=80-100%). The “percentage damage caused to the plant, LOLPE POST” value [4] was 4 (4=60-79%), the “percentage damage caused to the plant, LOLPE PRE” value [4] was 4 (4=60-79%) and the “percentage damage caused to the plant, SETFA POST” value [5] was 4 (4=60-79%). The “percentage damage caused to the plant, SETFA PRE” value [5] was 5 (5=80-100%).

With `CC#Cc1cc(C)c(C2C(=O)CC3(CCC(C(=O)N4CCOCC4=O)CC3)CC2=O)c(C)c1` (stereo not shown) [Compound 1.005] the “percentage damage caused to the plant, ALOMY POST” value [1] was 4 (4=60-79%), the “percentage damage caused to the plant, ALOMY PRE” value [1] was 3 (3=40-59%) and the “percentage damage caused to the plant, AVEFA POST” value [2] was 5 (5=80-100%). The “percentage damage caused to the plant, AVEFA PRE” value [2] was 4 (4=60-79%), the “percentage damage caused to the plant, ECHCG POST” value [3] was 5 (5=80-100%) and the “percentage damage caused to the plant, ECHCG PRE” value [3] was 5 (5=80-100%). The “percentage damage caused to the plant, LOLPE POST” value [4] was 5 (5=80-100%), the “percentage damage caused to the plant, LOLPE PRE” value [4] was 5 (5=80-100%) and the “percentage damage caused to the plant, SETFA POST” value [5] was 5 (5=80-100%). For the same compound, the “percentage damage caused to the plant, SETFA PRE” value [5] was 5 (5=80-100%).

For `CC#Cc1cc(C)c(C2C(=O)CC3(CCC(C(=O)N4CCS(=O)(=O)CC4)CC3)CC2=O)c(C)c1` (stereo not shown) [Compound 1.007], the “percentage damage caused to the plant, ALOMY POST” value [1] was 5 (5=80-100%), the “percentage damage caused to the plant, ALOMY PRE” value [1] was 3 (3=40-59%) and the “percentage damage caused to the plant, AVEFA POST” value [2] was 5 (5=80-100%). The “percentage damage caused to the plant, AVEFA PRE” value [2] was 3 (3=40-59%), the “percentage damage caused to the plant, ECHCG POST” value [3] was 5 (5=80-100%) and the “percentage damage caused to the plant, ECHCG PRE” value [3] was 5 (5=80-100%). For the same compound, the “percentage damage caused to the plant, LOLPE POST” value [4] was 5 (5=80-100%), the “percentage damage caused to the plant, LOLPE PRE” value [4] was 5 (5=80-100%) and the “percentage damage caused to the plant, SETFA POST” value [5] was 5 (5=80-100%). The “percentage damage caused to the plant, SETFA PRE” value [5] was 4 (4=60-79%).

`CC#Cc1cc(C)c(C2C(=O)CC3(CCC(C(=O)N4CCOCC4)CC3)CC2=O)c(C)c1` (stereo not shown) [Compound 1.008] was tested, and the “percentage damage caused to the plant, ALOMY POST” value [1] was 5 (5=80-100%), the “percentage damage caused to the plant, ALOMY PRE” value [1] was 4 (4=60-79%) and the “percentage damage caused to the plant, AVEFA POST” value [2] was 5 (5=80-100%). For the same compound, the “percentage damage caused to the plant, AVEFA PRE” value [2] was 3 (3=40-59%), the “percentage damage caused to the plant, ECHCG POST” value [3] was 5 (5=80-100%) and the “percentage damage caused to the plant, ECHCG PRE” value [3] was 5 (5=80-100%). The “percentage damage caused to the plant, LOLPE POST” value [4] was 5 (5=80-100%), the “percentage damage caused to the plant, LOLPE PRE” value [4] was 5 (5=80-100%) and the “percentage damage caused to the plant, SETFA POST” value [5] was 4 (4=60-79%). For the same compound, the “percentage damage caused to the plant, SETFA PRE” value [5] was 5 (5=80-100%).

Reference: US12319640B2, “Cyclic diones as herbicidal compounds” (SYNGENTA CROP PROTECTION AG, priority 2019, dated 2025)
